What all share (assay type): cell-based
Experiment [1] has as its target T1, Human GPR40 (Homo sapiens, UniProt O14842). Description: Inositol Phosphate Turnover (IP1) Assay 2. Also noted: expressed in transfected cells; host or cells: HEK cells stably expressing the aequorin reporter. Particulars: HEK cells stably expressing human GPR40, 384-well, CisBio IP-One kit. How it is done: The assay was performed in 384-well format. HEK cells stably expressing human GPR40 were plated at 15,000 cells per well in growth medium (DMEM/10% fetal calf serum). Cell plates were then incubated 16 hours at 37 degrees in a 5% CO2 incubator.
Measurement of Inositol Phosphate Turnover (IP1) was performed using the CisBio IP-One kit (Part number 62IPAPEB). After the 16 hour incubation, the cells were washed with HEPES buffer and 10 ul of stimulation buffer (prepared as described in the kit) was added to each well. In a separate plate, compounds were diluted in DMSO (400-fold over the final concentration in the assay well) and 25 nl was acoustically transferred to the appropriate well in the assay cell plate. The plates were then incubated for 60 minutes at 37 degrees. 10 ul of detection buffer (also prepared as described in the IP-One kit) was added to each well and the plates were incubated for 60 minutes in the dark. The plates were then read in a Perkin Elmer EnVision or equivalent reader able to measure FRET. Fluorescent ratio of emission at 665 and 620 nm was then converted to IP1 concentration by back calculating from an IP1 standard curve prepared at the time of the assay.

The target of experiment [2] is T1, Human GPR40. The experiment in a line: FLIPR assay (agonist-induced calcium mobilization). Particulars: GPR40/CHO NFAT BLA cells. Also noted: expressed in transfected cells. How it is done: (§1) Human and mouse GPR40 stable cell-lines were generated in CHO cells stably expressing NFAT BLA (Beta-lactamase). A human GPR40 stable cell-line was generated in HEK cells stably expressing the aequorin expressing reporter. The expression plasmids were transfected using lipofectamine (Life Technologies) following manufacturer's instructions. Stable cell-lines were generated following drug selection.
FLIPR (Fluorimetric Imaging Plate Reader, Molecular Devices) assays were performed to measure agonist-induced calcium mobilization of the stable clones. For the FLIPR assay, one day before assay, GPR40/CHO NFAT BLA cells were seeded into black-wall-clear-bottom 384-well plates (Costar) at 1.4×10e4 cells/20 μL medium/well. The cells were incubated with 20 μl/well of the assay buffer (HBSS, 0.1% BSA, 20 mM HEPES, 2.5 mM probenecid, pH 7.4) containing 8 μM fluo-4, AM, 0.08% pluronic acid at room temperature for 100 minutes. Fluorescence output was measured using FLIPR. Compounds were dissolved in DMSO and diluted to desired concentrations with assay buffer. 13.3 μL/well of compound solution was added.

In experiment [3] the target is T1, Human GPR40. The experiment in a line: Inositol Phosphate Turnover (IP1) Assay 1. Also on record: expressed in transfected cells; host or cells: HEK cells stably expressing the aequorin reporter. The conditions noted are these: HEK cells stably expressing human GPR40, 96-well, 3H-inositol labeling, SPA beads. On the procedure: as §1
The assay was performed in 96-well format. HEK cells stably expressing human GPR40 were plated to be 60-80% confluent within 72 h. After 72 h, the plates were aspirated and the cells washed with inositol-free DMEM (ICN). The wash media was replaced with 150 μL of 3H-inositol labeling media (inositol-free media containing 0.4% human albumin or 0.4% mouse albumin, 1× pen/strep antibiotics, glutamine, 25 mM HEPES to which was added 3H-myo-inositol NEN #NET114A 1 mCi/mL, 25 Ci/mmol diluted 1:150 in loading media with a final specific radioactivity of 1 μCi/150 μL). Alternatively, the human and mouse albumin can be added after the overnight labeling step before the addition of LiCl.
The assay was typically run the next day after 18 h labeling. On the day of the assay, 5 μL of 300 mM LiCl was added to all wells and incubated at 37 degrees for 20 min 0.75 μL of 200× compounds were added and incubated with the cells for 60 min at 37 degrees. The media was then aspirated off and the assay terminated with the addition of 60 μL 10 mM formic acid. The cells were lysed for 60 min at room temperature. 15-30 μL of lysate was mixed with 70 μL/1 mg YSi SPA beads (Amersham) in clear bottom Isoplates. The plates were shaken for 2 h at room temperature. Beads were allowed to settle and the plates were counted in the Wallac Microbeta.

Molecules are shown by their SMILES.

T1 sequence (O14842 whole entry): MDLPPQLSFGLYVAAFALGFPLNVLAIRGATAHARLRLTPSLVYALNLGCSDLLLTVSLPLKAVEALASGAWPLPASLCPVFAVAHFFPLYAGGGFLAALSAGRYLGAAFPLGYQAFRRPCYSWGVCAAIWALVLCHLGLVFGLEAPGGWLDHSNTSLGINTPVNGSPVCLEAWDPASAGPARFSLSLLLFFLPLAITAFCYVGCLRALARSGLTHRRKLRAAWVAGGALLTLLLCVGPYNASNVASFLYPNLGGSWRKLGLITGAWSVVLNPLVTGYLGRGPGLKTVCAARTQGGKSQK

The EC50 is the concentration giving half of the maximal effect. In turn, `Cc1cc(OCCC(C)(O)C(F)F)nc(C)c1-c1cc(COc2cc3c(cn2)C2[C@@H](C3)[C@@H]2C(=O)O)c(F)cc1F` (stereo in doubt) [Example 17, (5aR,6S,6aR)-3-((5-(6-(4,4-difluoro-3-hydroxy-3-methyl-butoxy)-2,4-di-methylpyridin-3-yl)-2,4-difluorobenzyl)oxy)-5,5a,6,6a-tetra-hydrocyclopropa[4,5] cyclopenta[1,2-c] pyridine-6-carboxylic acid] returned an EC50 at Human GPR40 [1] of 2.1 nM. Compound `Cc1cc(CCC(C)(O)CO)cc(C)c1-c1cc(COc2cc3c(cn2)[C@H]2[C@@H](C3)[C@@H]2C(=O)O)c(F)cc1F` (stereo partly drawn) [Example 23, (5aR,6S,6aS)-3-((4′-(3,4-dihydroxy-3-methylbutyl)-4,6-difluoro-2′,6′-dimethyl-[1,1′-biphenyl]-3-yl)methoxy)-5,5a,6,6a-tetrahydrocyclopropa[4,5]cyclopenta[1,2-c]pyridine-6-carboxylic acid] yielded an EC50 on Human GPR40 [1] of 5.2 nM. Regarding `Cc1nc(OCCC(C)(O)CO)ccc1-c1cc(COc2cc3c(cn2)[C@H]2[C@@H](C3)[C@@H]2C(=O)O)c(F)cc1C(F)(F)F` (stereo partly drawn) [Example 20, (5aR,6S,6aS)-3-((5-(6-(3,4-dihydroxy-3-methyl-butoxy)-2-methylpyridin-3-yl)-2-fluoro-4-(tri-fluoro-methyl)benzyl)-oxy)-5,5a,6,6a-tetra-hydro-cyclopropa[4,5]-cyclopenta[1,2-c]-pyridine-6-carboxylic acid], the midpoint of the response on Human GPR40 [1], the EC50, lay at 3.1 nM. In turn, `Cc1cc(OCC[C@@H](O)CO)c(F)cc1-c1cc(COc2cc3c(cn2)[C@H]2[C@@H](C3)[C@@H]2C(=O)O)c(F)cc1Cl` [Example 26, (5aR,6S,6aS)-3-((6-chloro-4′-((R)-3,4-dihydroxybutoxy)-4,5,-difluoro-2′-methyl-[1,1′-biphenyl]-3-yl)methoxy)-5,5a,6,6a-tetrahydrocyclo-propa[4,5]cyclopenta [1,2-c]pyridine-6-carboxylic acid] displayed an EC50 at Human GPR40 [1] of 0.7 nM. Compound `Cc1cc(OCC(C(C)(C)O)C(C)(C)O)cc(C)c1-c1cc(COc2cc3c(cn2)[C@H]2[C@@H](C3)[C@@H]2C(=O)O)c(F)cc1F` [Example 22, (5aR,6S,6aS)-3-((4,6-difluoro-4′-(3-hydroxy-2-(2-hydroxypropan-2-yl)-3-methylbutoxy)-2′,6′-dimethyl-[1,1′-biphenyl]-3-yl)methoxy)-5,5a,6,6a-tetrahydrocyclopropa[4,5]cyclopenta[1,2-c]pyridine-6-carboxylic acid] displayed an EC50 on Human GPR40 [1] of 3.1 nM. For the compound `CC(C)(O)CCOc1ccc(-c2cc(COc3cc4c(cn3)[C@H]3[C@@H](C4)[C@@H]3C(=O)O)c(F)cc2C(F)F)cc1F` [Example 11, (5aR,6S,6aS)-3-((6-(di-fluoro-methyl)-3',4-di-fluoro-4'-(3-hydroxy-3-methyl-butoxy)-[1,1'-biphenyl]-3-yl)methoxy)-5,5a,6,6a-tetrahydro-cyclopropa[4,5]cyclo-penta[1,2-c]pyridine-6-carboxylic acid], the EC50 on Human GPR40 [2] is 16.7 nM; at Human GPR40 [3] it was 17.6 nM. For `Cc1nc(OCCC(C)(C)O)ccc1-c1cc(COc2cc3c(cn2)[C@H]2[C@@H](C3)[C@@H]2C(=O)O)c(F)cc1C(F)(F)F` [Example 3, (5aR,6S,6aS)-3-((2-fluoro-5-(6-(3-hydroxy-3-methyl-butoxy)-2-methyl-pyridin-3-yl)-4-(trifluoromethyl)-benzyl)-oxy)-5,5a, 6,6a-tetrahydro-cyclopropa[4,5] cyclopenta[1,2-c] pyridine-6-carboxylic acid], the EC50 came out at 1.52 nM at Human GPR40 [2] and 4.95 nM at Human GPR40 [3]. For `Cc1cc(OCCC(C)(C)O)ccc1-c1cc(COc2cc3c(cn2)[C@H]2[C@@H](C3)[C@@H]2C(=O)O)c(F)cc1C(F)(F)F` [Example 1], in that order: 16.7 nM and 9.89 nM.

These data come from patent publication US9932311B2, “Antidiabetic tricyclic compounds” (Merck Sharp & Dohme Corp., priority 2013, dated 2018).
